According to the supplement of paper PMC10307832:

How the values were obtained:
Assay in all cases: relative viability (nuclei count vs DMSO), 5 days (fraction); higher = more cells survive
[1] = compound: CN(NC(=O)CC(=O)NN(C)C(=S)c1ccccc1)C(=S)c1ccccc1 [Elesclomol] + CC(=O)c1c(C)c2cnc(Nc3ccc(N4CCNCC4)cn3)nc2n(C2CCCC2)c1=O [Palbociclib] (partner 0.5 µM)
Method in brief: (§1)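 Relative viability is defined as nuclei in treated wells over nuclei in vehicle wells. Duplicate plates were run and medians reported. Lung cancer cell lines in 1536-well plates were dosed by pin tool one day after seeding, with one drug or with a fixed anchor-drug dose plus five library-drug doses (not always all listed) in √10 steps, and nuclei were counted after 5 days.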

[2] = compound: CN(NC(=O)CC(=O)NN(C)C(=S)c1ccccc1)C(=S)c1ccccc1 [Elesclomol] + CS(=O)(=O)CCNCc1ccc(-c2ccc3ncnc(Nc4ccc(OCc5cccc(F)c5)c(Cl)c4)c3c2)o1 [Lapatinib] (partner 2 µM)
Method in brief: as §1

[3] = compound: CN(NC(=O)CC(=O)NN(C)C(=S)c1ccccc1)C(=S)c1ccccc1 [Elesclomol] + N=C(N)NC(=N)NCCc1ccccc1 [Phenformin] (partner 250 µM)
Method in brief: as §1

[4] = compound: CN(NC(=O)CC(=O)NN(C)C(=S)c1ccccc1)C(=S)c1ccccc1 [Elesclomol] + Nc1nc2[nH]cc(CCc3ccc(C(=O)N[C@@H](CCC(=O)O)C(=O)O)cc3)c2c(=O)[nH]1 [Pemetrexed] (partner 0.2 µM)
Method in brief: as §1

[5] = compound: CN(NC(=O)CC(=O)NN(C)C(=S)c1ccccc1)C(=S)c1ccccc1 [Elesclomol] + O=C(c1cc(Cc2n[nH]c(=O)c3ccccc23)ccc1F)N1CCN(C(=O)C2CC2)CC1 [Olaparib] (partner 8 µM)
Method in brief: as §1

Cell Line | relative viability ([1]; first compound 0.003162 µM) | relative viability ([1]; first compound 0.01 µM) | relative viability ([1]; first compound 0.03162 µM) | relative viability ([1]; first compound 0.1 µM) | relative viability ([2]; first compound 0.003162 µM) | relative viability ([2]; first compound 0.01 µM) | relative viability ([2]; first compound 0.03162 µM) | relative viability ([2]; first compound 0.1 µM) | relative viability ([3]; first compound 0.003162 µM) | relative viability ([3]; first compound 0.01 µM) | relative viability ([3]; first compound 0.03162 µM) | relative viability ([3]; first compound 0.1 µM) | relative viability ([4]; first compound 0.003162 µM) | relative viability ([4]; first compound 0.01 µM) | relative viability ([4]; first compound 0.03162 µM) | relative viability ([4]; first compound 0.1 µM) | relative viability ([5]; first compound 0.003162 µM) | relative viability ([5]; first compound 0.01 µM) | relative viability ([5]; first compound 0.03162 µM) | relative viability ([5]; first compound 0.1 µM)
NCI-H1755 | 0.483 | 0.429 | 0.462 | 0.393 | 1.05 | 0.939 | 0.887 | 0.236 | 0.624 | 0.466 | 0.605 | 0.57 | 0.383 | 0.359 | 0.426 | 0.348 | 0.87 | 0.813 | 0.938 | 0.692
NCI-H1792 | 0.544 | 0.569 | 0.607 | 0.662 | 0.867 | 0.841 | 0.807 | 0.932 | 0.342 | – | 0.339 | 0.118 | 0.79 | – | 0.793 | 0.277 | 0.5 | – | 0.395 | 0.169
NCI-H1793 | 0.3 | 0.297 | 0.247 | 0.123 | 0.657 | 0.613 | 0.651 | 0.112 | 0.302 | 0.35 | 0.335 | 0.247 | 0.833 | 0.643 | 0.855 | 0.102 | 0.818 | 0.692 | 0.386 | 0.0938
NCI-H1915 | 0.517 | 0.381 | 0.489 | 0.206 | 0.986 | – | 0.948 | 0.78 | 0.37 | – | 0.38 | 0.371 | 0.499 | 0.456 | 0.481 | 0.286 | 0.256 | 0.243 | 0.231 | 0.169
NCI-H1944 | 0.328 | 0.328 | 0.347 | 0.227 | 0.829 | 0.714 | 0.846 | 0.688 | 0.216 | 0.169 | 0.212 | 0.201 | 0.613 | 0.724 | 0.572 | 0.189 | 0.421 | 0.412 | 0.358 | 0.209
NCI-H1975 | 0.579 | 0.263 | 0.205 | 0.0984 | 0.84 | 0.571 | 0.164 | 0.1 | 0.43 | 0.329 | 0.388 | 0.281 | 0.298 | 0.292 | 0.17 | 0.133 | 0.752 | 0.633 | 0.337 | 0.183
NCI-H1993 | 0.712 | 0.564 | 0.456 | 0.433 | 0.753 | 0.809 | 0.697 | 0.563 | 0.512 | 0.538 | 0.517 | 0.53 | 0.707 | 0.6 | 0.486 | 0.366 | 0.967 | 0.789 | 0.516 | 0.393
NCI-H2009 | 0.224 | 0.172 | 0.116 | 0.0798 | 0.841 | 0.178 | 0.136 | 0.107 | 0.344 | 0.239 | 0.243 | 0.107 | 1.02 | 0.982 | 0.312 | 0.115 | 0.643 | 0.515 | 0.128 | 0.109
